From patent US20100286035A1, “NEUROMEDIN U DERIVATIVE” (Takeda Pharmaceutical Company Limited, priority 2007, published 2010)
Where no end group is shown, it is not given here.

Key:
Assay type in all cases: in vivo
male C57BL/6J mice [1] = experiment: Test Example 4: antifeedant activity of NMU-8 PEG conjugate in mice; conditions: 100 nmol/kg intraperitoneally, mice fasted for 16 hours (FIG. 5)
Procedure: (§1) 7 weeks old male C57BL/6J mice delivered from the Japan Charles River Company were raised for 5 to 10 days after delivery under a feeding environment regulated for temperature and humidity with lighting time (25° C., 12 hours of lighted period and 12 hours of dark period, light was lit at 8:00). Four animals were placed in one cage. After handling the mice for 5 to 8 days, the animals were housed singly in each cage where a floor mesh was spread and acclimated by intraperitoneal injection for 3 days prior to the administration of a peptide (conjugate). The animals acclimated were fasted for 16 hours from 18:00 prior to the administration of the peptide (conjugate). However, the animals had free access to drinking water). Subsequently, a peptide dissolved in physiological saline solution (conjugate) was intraperitoneally injected into the mice, namely 24.2 μM PEG30k (GMBS)-NMU-8 [1], 24.2 μM PEG30k (EMCS)-NMU-8 [2], 24.2 μM PEG30k (KMUS)-NMU-8 [3], 24.2 μM PEG30k (SMCC)-NMU-8 [4] were administered intraperitoneally at 10:00 on the day of administration to the mice such that the dosage of each solution (100 μl) was 100 nmol/kg. After the injection of the peptide (conjugate) solution, MF feed which had been weighed (Oriental Yeast Industry) was given freely to the mice. Further, the residual amount of the feed was measured after 3, 6 and 24 hours. The food intakes at 3, 6 and 24 hours were calculated by subtracting the residual amount of the feed after 3, 6 and 24 hours from the amount of the feed that was originally given.

male C57BL/6J mice [2] = experiment: Test Example 5: antifeedant activity of NMU-8 PEG conjugate in mice; conditions: 10 nmol/kg intraperitoneally, mice fasted for 16 hours (FIG. 6)
Procedure: (§2) 7 weeks old male C57BL/6J mice delivered from the Japan Charles River Company were raised for 5 to 10 days after delivery under a feeding environment regulated for temperature and humidity with lighting time (25° C., 12 hours of lighted period and 12 hours of dark period, light was lit at 8:00). Four animals were placed in one cage. After handling the mice for 5 to 8 days, the animals were housed singly in each cage where a floor mesh was spread and acclimated by intraperitoneal injection using a syringe (micro injector, syringe for insulin administration, Terumo) for 3 days prior to the administration of a peptide (conjugate). The animals acclimated were fasted for 16 hours from 18:00 prior to the administration of the peptide (conjugate). However, the animals had free access to drinking water). Subsequently, a peptide dissolved in physiological saline solution (conjugate) namely 2.39 μM PEG30k (GMBS)-NMU-8 [1], 2.39 μM PEG30k (EMCS)-NMU-8 [2], 2.39 μM PEG30k (KMUS)-NMU-8 [3], 2.39 μM PEG30k (SMCC)-NMU-8 [4] were administered intraperitoneally at 10:00 on the day of administration to the mice such that the dosage of each solution (100 μl) was 10 nmol/kg. After the injection of the peptide (conjugate) solution, MF feed which had been weighed (Oriental Yeast Industry) was given freely to the mice. Further, the residual amount of the feed was measured after 3, 6 and 24 hours. The food intakes at 3, 6 and 24 hours were calculated by subtracting the residual amount of the feed after 3, 6 and 24 hours from the amount of the feed that was originally given.

male C57BL/6J mice [3] = experiment: Test Example 6: antifeedant activity of NMU-8 PEG conjugate in mice; conditions: 100 nmol/kg intraperitoneally, mice fasted for 16 hours (FIG. 7)
Procedure: as §1, with “Subsequently, a peptide dissolved in physiological saline solution (conjugate) was intraperitoneally injected into the mice, namely 24.2 μM PEG30k (GMBS)-NMU-8 [1], 24.2 μM PEG30k (EMCS)-NMU-8 [2], 24.2 μM PEG30k (KMUS)-NMU-8 [3], 24.2 μM PEG30k (SMCC)-NMU-8 [4] were administered intraperitoneally at 10:00 on the day of administration to the mice such that the dosage of each solution (100 μl) was 100 nmol/kg.” left out

male C57BL/6J mice [4] = experiment: Test Example 7: antifeedant activity of NMU-8 PEG conjugate in mice; conditions: 10 nmol/kg intraperitoneally, mice fasted for 16 hours (FIG. 8)
Procedure: as §2, with “animals were” for “animals had”, “namely 2.51” for “namely 2.39”, “μM PEG30k-NMU-8 [5], 2.51” for “μM PEG30k (GMBS)-NMU-8 [1], 2.39”, “μM PEG30k-Cys-NMU-8 [6], 2.51” for “μM PEG30k (EMCS)-NMU-8 [2], 2.39”, “μM PEG30k-(Traut)-NMU-8 [7], 2.51” for “μM PEG30k (KMUS)-NMU-8 [3], 2.39”

male C57BL/6J mice [5] = experiment: Test Example 8: antifeedant activity of NMU-8 PEG conjugate in mice; conditions: 100 nmol/kg intraperitoneally, mice fasted for 16 hours (FIG. 9)
Procedure: 7 weeks old male C57BL/6J mice delivered from the Japan Charles River Company were raised for 5 to 10 days after delivery under a feeding environment regulated for temperature and humidity with lighting time (25° C., 12 hours of lighted period and 12 hours of dark period, light was lit at 8:00). Four animals were placed in one cage. After handling the mice for 5 to 8 days, the animals were housed singly in each cage where a floor mesh was spread and acclimated by intraperitoneal injection for 3 days prior to the administration of a peptide (conjugate). The animals acclimated were fasted for 16 hours from 18:00 prior to the administration of the peptide (conjugate). However, the animals has free access to drinking water). Subsequently, a peptide (conjugate) dissolved in physiological saline solution was intraperitoneally injected to the mice, namely 24.3 μM PEG30k (ACP)-NMU-8 [14], 24.3 μM (PEG20k)2 (ACP)-NMU-8 [29], 24.3 μM PEG30k (AB)-NMU-8 [11], 24.3 μM (PEG20k)2 (AB)-NMU-8 [26], 24.3 μM PEG30k (NH-AB)-NMU-8 [42], 24.3 μM PEG30k (SMCC)-NMU-8 [4] were administered intraperitoneally at 10:00 on the day of administration to the mice such that the dosage of each solution (100 μl) was 100 nmol/kg. After the injection of the peptide (conjugate) solution, MF feed which had been weighed (Oriental Yeast Industry) was given freely to the mice. Further, the residual amount of the feed was measured after 3, 6 and 24 hours. The food intakes at 3, 6 and 24 hours were calculated by subtracting the residual amount of the feed after 3, 6 and 24 hours from the amount of the feed that was originally given.

male C57BL/6J mice [6] = experiment: Test Example 1: antifeedant activity of NMU-23 and NMS in mice; conditions: 3 mg/kg intraperitoneally, mice fasted for 16 hours
Procedure: 7 weeks old male C57BL/6J mice (mean bodyweight: 24 g) delivered from the Japan Charles River Company were raised for 5 to 7 days after the delivery under a feeding environment regulated for temperature and humidity with lighting time (25° C., 12 hours of lighted period and 12 hours of dark period, light was lit at 8:00). Four animals were placed in one cage. After handling the mice for 5 to 8 days, the animals were housed singly in each cage where a floor mesh was spread and acclimated by intraperitoneal injection for 3 days prior to the administration of a peptide. The animals acclimated were fasted for 16 hours from 18:00 prior to the administration of the peptide. However, the animals had free access to drinking water. Subsequently, a peptide, namely 720 μg/ml rat NMU-23 (peptide Institution) [Sequence No. 5], or rat NMS (Bachem) [Sequence No. 9] dissolved in physiological saline solution was intraperitoneally injected to the mice such that the dosage of each solution (100 μl) was 3 mg/kg at 10:00 on the day of administration. […] Further, the residual amount of the feed was measured after 3, 6 and 24 hours. The food intakes at 3, 6 and 24 hours were calculated by subtracting the residual amount of the feed after 3, 6 and 24 hours from the amount of the feed that was originally given. […]

male C57BL/6J mice [7] = experiment: Test Example 2: antifeedant activity of NMU-23 and NMU-8 in mice
Procedure: 7 weeks old male C57BL/6J mice (mean bodyweight: 25 g) delivered from the Japan Charles River Company were raised for 5 to 10 days after delivery under a feeding environment regulated for temperature and humidity with lighting time (25° C., 12 hours of lighted period and 12 hours of dark period, light was lit at 8:00). Four animals were placed in one cage. After handling the mice for 5 to 8 days, the animals were housed singly in each cage where a floor mesh was spread and acclimated by intraperitoneal injection for 3 days prior to the administration of a peptide. The animals acclimated were fasted for 16 hours from 18:00 prior to the administration of the peptide. However, the animals had free access to drinking water. […] After the injection of the peptide solution, MF feed which had been weighed (Oriental Yeast Industry) was given freely to the mice. Further, the residual amount of the feed was measured after 3, 6 and 24 hours. The food intakes at 3, 6 and 24 hours were calculated by subtracting the residual amount of the feed after 3, 6 and 24 hours from the amount of the feed that was originally given.
[In FIG. 2, * and ** tested by T-tests indicated to be lower at the levels of significance of 0.05 and 0.01 (P<0.05 and P<0.01]

Row | Substance | intakes of the feed at 3, 6 and 24 hours (male C57BL/6J mice [1]) | intakes of the feed at 3, 6 and 24 hours (male C57BL/6J mice [2]) | intakes of the feed at 3, 6 and 24 hours (male C57BL/6J mice [3]) | intakes of the feed at 3, 6 and 24 hours (male C57BL/6J mice [4]) | intakes of the feed at 3, 6 and 24 hours (male C57BL/6J mice [5]) | other results
1 | PEG30k(SMCC)-NMU-8 | significantly suppressed | significantly suppressed | significantly suppressed | significantly suppressed | significantly suppressed | 
2 | rat NMS: rat neuromedin S (Bachem) [Sequence No. 9] (LPRLLHTDSRMATIDFPKKDPTTSLGRPFFLFRPRN-NH2; listed as Rattus norvegicus) |  |  |  |  |  | intakes of the feed at 3, 6 and 24 hours (male C57BL/6J mice [6]): significantly suppressed
3 | PEG30k(ACP)-NMU-8 |  |  |  |  | significantly suppressed | 
4 | PEG30k-Cys-NMU-8 (C(PEG 30 kDa)FFLFRPRN-NH2) |  |  | significantly suppressed | significantly suppressed |  | 
5 | PEG30k(GMBS)-NMU-8 | significantly suppressed | significantly suppressed |  |  |  | 
6 | PEG30k(Traut)-NMU-8 |  |  | significantly suppressed | significantly suppressed |  | 
7 | (PEG20k)2(AB)-NMU-8 |  |  |  |  | significantly suppressed | 
8 | (PEG20k)2(ACP)-NMU-8 |  |  |  |  | significantly suppressed | 
9 | PEG30k(KMUS)-NMU-8 | significantly suppressed | significantly suppressed |  |  |  | 
10 | PEG30k(AB)-NMU-8 |  |  |  |  | significantly suppressed | 
11 | PEG30k-NMU-8 |  |  | significantly suppressed | significantly suppressed |  | 
12 | Tyr-Lys-Val-Asn-Glu-Tyr-Gln-Gly-Pro-Val-Ala-Pro-Ser-Gly-Gly-Phe-Phe-Leu-Phe-Arg-Pro-Arg-Asn-NH2 (YKVNEYQGPVAPSGGFFLFRPRN-NH2; listed as Rattus norvegicus) [rat NMU-23] |  |  |  |  |  | intakes of the feed at 3 and 6 hours (male C57BL/6J mice [7]; 3 mg/kg intraperitoneally, mice fasted for 16 hours): significantly suppressed; antifeedant activity via peripheral administration (male C57BL/6J mice [7]; peripheral administration): expresses an antifeedant activity; intakes of the feed at 3, 6 and 24 hours (male C57BL/6J mice [6]): significantly suppressed
13 | PEG30k(EMCS)-NMU-8 | significantly suppressed | significantly suppressed |  |  |  | 
